US20020032173A1, “Blood flow improvers and thrombosis preventives or remedies” (Koyo Chemical Co., Ltd., priority 2000, published 2002)
Where “and” joins values, the source holds several entries; their conditions need not be identical. Equal entries are not always repeated.

Columns and labels:
adult volunteers [1] = assay: Test 3: whole blood transit time by MC-FAN after oral N-acetylglucosamine; assay type: in vivo, human; conditions: mean before administration 60.9 sec
Procedure: From each of adult volunteers (A: male, B: female, C: female, D: female, E: male) who had taken usual breakfast, a first blood sample (10 mL) was collected at 1:00 p.m. Immediately after the collection of the blood sample, 1.5 g of glucosamine hydrochloride with 50 mL of water was administered to the volunteer. Blood samples (10 mL, each; 5% heparinated) were collected upon elapsed time of 30 min, 60 min and 90 min after the administration. The fluidity of each blood sample was determined by a microchannel array flow analyzer (MC-FAN) which is a capillary model fabricated by VLSI technology. The determination was carried out as will be described below. […] A transit time necessary for 100 μL of the whole blood sample to pass through the microchannels was measured. Using a transit time necessary for 100 μL of physiological saline to pass through the microchannels as measured just before the blood measurement, the transit time of the whole blood sample was converted in accordance with the following equation: Transit time of the whole blood x 12 sec/transit time of the physiological saline to obtain a value which would have been available if the transmit time of physiological saline had been 12 sec. The value was recorded as a blood transit time. […]

adult volunteers [2] = assay: Test 1: blood flow improving effects, whole blood transit time by microchannel array flow analyzer (MC-FAN) after oral glucosamine hydrochloride; assay type: in vivo, human; conditions: for Transit time: 100 μL heparinated whole blood; for Transit time, Mean: mean of 5 volunteers, mean before administration 50.3 sec
Procedure: From each of adult volunteers (A: male, B: female, C: female, D: female, E: male) who had taken usual breakfast, a first blood sample (10 mL) was collected at 1:00 p.m. Immediately after the collection of the blood sample, 1.5 g of glucosamine hydrochloride with 50 mL of water was administered to the volunteer. Blood samples (10 mL, each; 5% heparinated) were collected upon elapsed time of 30 min, 60 min and 90 min after the administration. The fluidity of each blood sample was determined by a microchannel array flow analyzer (MC-FAN) which is a capillary model fabricated by VLSI technology. The determination was carried out as will be described below. A fresh 5%-heparinated whole blood sample, which had been obtained by adding 0.5 part by weight of a 1,000 IU/mL heparin sodium solution to 9.5 parts by weight of the corresponding blood sample, was caused to flow through an array of 8,736 parallel microchannels of 7 μm in width, 30 μm in length and 4.5 μm in depth (Bloody 6-7) under 20 cmH2O suction by using the microchannel array flow analyzer (MC-FAN). A transit time necessary for 100 μL of the whole blood sample to pass through the microchannels was measured. Using a transit time necessary for 100 μL of physiological saline to pass through the microchannels as measured just before the blood measurement, the transit time of the whole blood sample was converted in accordance with the following equation: Transit time of the whole blood x 12 sec/transit time of the physiological saline to obtain a value which would have been available if the transmit time of physiological saline had been 12 sec. The value was recorded as a blood transit time. The results are shown in Table 1, including indices of whole blood transit times of the blood samples collected after the administration of the glucosamine hydrochloride based on those of the corresponding blood samples collected before the administration of glucosamine hydrochloride (% relative to an initial value of 100%).

Row | SMILES | mean blood transit time (adult volunteers [1]; 30 min after administration as in Test 1) | mean blood transit time (adult volunteers [1]; 1 hr after administration as in Test 1) | Index (%) of whole blood transit time relative to initial value of 100% (adult volunteers [2]; 30 min after oral 1.5 g) | Index (%) of whole blood transit time relative to initial value of 100% (adult volunteers [2]; 60 min after oral 1.5 g) | Transit time (adult volunteers [2]; individual volunteer E, 90 min after oral 1.5 g with 50 mL water) | Transit time (adult volunteers [2]; individual volunteers A-E, 30 min after oral 1.5 g with 50 mL water, normalised to saline 12 sec, hydrochloride) | Transit time (adult volunteers [2]; individual volunteers A-E, 60 min after oral 1.5 g with 50 mL water, hydrochloride) | Transit time, Mean (adult volunteers [2]; 30 min after oral 1.5 g) | Transit time, Mean (adult volunteers [2]; 60 min after oral 1.5 g)
1 | CC(=O)N[C@H]1C(O)O[C@H](CO)[C@@H](O)[C@@H]1O (stereo partly drawn) [N-acetylglucosamine] | 36.5 s | increased back to the value before the administration | – | – | – | – | – | – | –
2 | Cl.N[C@H]1C(O)O[C@H](CO)[C@@H](O)[C@@H]1O (stereo partly drawn) [glucosamine hydrochloride] | – | – | 70.0% | 67.1% | 31.6 s | 35.3 s and 36.1 s and 28.6 s and 38.6 s and 37.1 s | 28.7 s and 37.1 s and 27.4 s and 42.3 s and 33.2 s | 35.1 s | 33.7 s
